According to US4220577A, “Iodopropargyl pyridyl and picolinyl ethers and thioethers as paint fungicides” (Givaudan Corporation, priority 1979, dated 1980):
≈ marks a conversion by molar mass, not a printed value.

Assays:
mildew = experiment: Outdoor field test of painted pine panels; details: .5%
From the text: A number of the compounds were field tested in various latex paints. Pine panels (6"×12"×1/2") were given two coats of paint and, after drying, were exposed at an outdoor location subject to high heat and humidity levels. Paints containing the novel componds of this invention were compared with those containing the commercial mecurial mildewcide phenyl mecuric acetate (PMA), a commercial non-mercurial mildewcide 2-n-octyl-4-isothiazolin-3-one and 3-iodo-2-propynyloxybenzene.

Staphylococcus aureus = experiment: 5-fold serial dilution test in agar, MIC, B1; type: cell-based; details: 37° C., 48 hours, read-out: Minimum Inhibitory Concentration Range
Description: (§1) Antibacterial and antifungal activity were evaluated by a 5-fold serial dilution test in agar. In this test, compounds were prepared as 6% solutions in dimethylformamide or ethanol. The 6% solution was then 5-fold serially diluted in test tubes to give the desired concentrations when mixed with agar and poured into sterile Petri dishes. Trypticase glucose extract agar was used for the bacterial testing; mildew glucose agar for the fungal testing. The bacterial plates were spot inoculated with 24-hour nutrient broth cultures and incubated at 37° C. for 48 hours. The fungal plates were spot inoculated with spore suspensions and incubated at 28° C. for seven days. At the end of the incubation periods, all plates were examined for growth. The minimum inhibitory concentration (MIC) for each organism is expressed in Table I. In the ranges presented, growth is observed only at the lower concentration.
B1 Staphylococcus aureus

Escherichia coli = experiment: 5-fold serial dilution test in agar, MIC, B2; type: cell-based; details: 37° C., 48 hours, read-out: Minimum Inhibitory Concentration Range
Description: as §1

Pseudomonas aeruginosa = experiment: 5-fold serial dilution test in agar, MIC, B3; type: cell-based; details: 37° C., 48 hours, read-out: Minimum Inhibitory Concentration Range
Description: as §1
B3 Pseudomonas aeruginosa

Proteus vulgaris = experiment: 5-fold serial dilution test in agar, MIC, B4; type: cell-based; details: 37° C., 48 hours, read-out: Minimum Inhibitory Concentration Range
Description: as §1

Bacillus subtilis = experiment: 5-fold serial dilution test in agar, MIC, B5; type: cell-based; details: 37° C., 48 hours, read-out: Minimum Inhibitory Concentration Range
Description: as §1
B5 Bacillus subtilis 4 3 μg/ml

Aspergillus niger = experiment: 5-fold serial dilution test in agar, MIC, F1; type: cell-based; details: 168 h, 28° C., seven days, read-out: Minimum Inhibitory Concentration Range
Description: as §1

Aspergillus oryzae = experiment: 5-fold serial dilution test in agar, MIC, F2; type: cell-based; details: 168 h, 28° C., seven days, read-out: Minimum Inhibitory Concentration Range
Description: as §1

Penicillium piscarium = experiment: 5-fold serial dilution test in agar, MIC, F3; type: cell-based; details: 168 h, 28° C., seven days, read-out: Minimum Inhibitory Concentration Range
Description: as §1
F3 Penicillium piscarium

Aureobasidium pullulans = experiment: 5-fold serial dilution test in agar, MIC, F4; type: cell-based; details: 168 h, 28° C., seven days, read-out: Minimum Inhibitory Concentration Range
Description: as §1
F4 Aureobasidium pullulans

[1] = system: Aureobasidium pullulans (strain 1); experiment: Antifungal activity on painted surfaces, strain 1; type: cell-based; set-up: key to Surface Growth: 0: No growth; 1: Slight growth; 2: Moderate growth; 3: Heavy growth; details: Strain 1, three weeks
Description: (§2) Any antifungal agent which can be used to prevent mildew on painted surfaces must be effective against Aureobasidium pullulans, the organism which is primarily responsible for mildew on painted surfaces. The effectiveness of the novel compounds was tested by incorporating the compound into an exterior latex paint, applying the paint to a surface, and testing the ability of the painted surface to prevent the growth of Aureobasidium pullulans. The tests were run as described below. The novel compounds were incorporated into an exterior vinyl acetate latex paint by mulling the compound into the paint. The compounds were tested in the paints at levels of 0.25% and 0.5%. One coat of this paint was applied to each side of a piece of Whatman #30 filter paper. Two one-inch squares were cut from the filter paper. Each square was centered on the agar surface of separate Petri dishes containing malt agar. One square was inoculated with a suspension of Aureobasidium pullulans (strain 1) which was an in-house strain used for routine antimicrobial testing. The second square was inoculated with a suspension of Aureobasidium pullulans (strain 2) which was grown from a culture obtained from the surface of a mildew infested panel. Squares painted with the same exterior vinyl acetate latex paint, but without the novel compounds of this invention, were run in parallel. The Petri dishes were then incubated at 27° C. and at greater than 90% humidity for a three week period and observed for zones of inhibition and surface growth.

[2] = system: Aureobasidium pullulans (strain 2); experiment: Antifungal activity on painted surfaces, strain 2; type: cell-based; set-up: key to Surface Growth: 0: No growth; 1: Slight growth; 2: Moderate growth; 3: Heavy growth; details: Strain 2, three weeks
Description: as §2

[3] = 0.25% in vinyl acetate latex paint
[4] = 0.5% in vinyl acetate latex paint

With `IC#CCOc1cccnc1` [Compound 1, 3-(3-iodo-2-propynyloxy)pyridine] the “Panel Scoring” value (mildew; Paint B (Acrylic latex-alkyd modified), month 5) was 8 and the “Panel Scoring” value (mildew; Paint B (Acrylic latex-alkyd modified), month 6) was 8.
For `CCCCCCCCn1sccc1=O` [II, 2-n-octyl-4-isothiazolin-3-one, reference compound], the “Panel Scoring” value (mildew; Paint A (Vinyl acetate latex), month 4) was 8.
Compound `IC#CCOc1cccnc1` [drawing 2] has an MIC (Staphylococcus aureus) of 15 to 76 µg/mL (≈ 57.9 to 293 µM), an MIC (Escherichia coli) of 76 to 384 µg/mL (≈ 293 to 1480 µM) and an MIC (Pseudomonas aeruginosa) greater than 1920 µg/mL. The MIC (Proteus vulgaris) was 3 to 15 µg/mL (≈ 11.6 to 57.9 µM), the MIC (Bacillus subtilis) was 3 to 15 µg/mL (≈ 11.6 to 57.9 µM) and the MIC (Aspergillus niger) was 0.03 to 0.12 µg/mL (≈ 0.116 to 0.463 µM). It also gave an MIC (Aspergillus oryzae) of 0.12 to 0.6 µg/mL (≈ 0.463 to 2.32 µM), an MIC (Penicillium piscarium) of 0.12 to 0.6 µg/mL (≈ 0.463 to 2.32 µM) and an MIC (Aureobasidium pullulans) of 0.12 to 0.6 µg/mL (≈ 0.463 to 2.32 µM).
`Cc1ccc(OCC#CI)cn1` [drawing 3] showed an MIC (Staphylococcus aureus) greater than 1920 µg/mL, an MIC (Escherichia coli) greater than 1920 µg/mL and an MIC (Pseudomonas aeruginosa) greater than 1920 µg/mL. It also gave an MIC (Proteus vulgaris) greater than 1920 µg/mL, an MIC (Bacillus subtilis) greater than 1920 µg/mL and an MIC (Aspergillus niger) of less than 0.03 µg/mL. For the same compound, the MIC (Aspergillus oryzae) was less than 0.03 µg/mL, the MIC (Penicillium piscarium) was 0.03 to 0.12 µg/mL (≈ 0.11 to 0.439 µM) and the MIC (Aureobasidium pullulans) was less than 0.03 µg/mL.
`Clc1ncccc1OCC#CI` [drawing 4] was tested, and the MIC (Staphylococcus aureus) was 3 to 15 µg/mL (≈ 10.2 to 51.1 µM), the MIC (Escherichia coli) was 15 to 76 µg/mL (≈ 51.1 to 259 µM) and the MIC (Pseudomonas aeruginosa) was greater than 1920 µg/mL. It also gave an MIC (Proteus vulgaris) of 3 to 15 µg/mL (≈ 10.2 to 51.1 µM), an MIC (Bacillus subtilis) of 3 to 15 µg/mL (≈ 10.2 to 51.1 µM) and an MIC (Aspergillus niger) of less than 0.03 µg/mL. It also gave an MIC (Aspergillus oryzae) of 0.03 to 0.12 µg/mL (≈ 0.102 to 0.409 µM), an MIC (Penicillium piscarium) of 0.12 to 0.6 µg/mL (≈ 0.409 to 2.04 µM) and an MIC (Aureobasidium pullulans) of 0.12 to 0.6 µg/mL (≈ 0.409 to 2.04 µM).
With `Cc1ccc(OCC#CI)c(Cl)n1` [drawing 5] the MIC (Staphylococcus aureus) was 384 to 1920 µg/mL (≈ 1250 to 6240 µM), the MIC (Escherichia coli) was greater than 1920 µg/mL and the MIC (Pseudomonas aeruginosa) was greater than 1920 µg/mL. The MIC (Proteus vulgaris) was greater than 1920 µg/mL, the MIC (Bacillus subtilis) was 15 to 76 µg/mL (≈ 48.8 to 247 µM) and the MIC (Aspergillus niger) was less than 0.03 µg/mL. It also gave an MIC (Aspergillus oryzae) of 0.03 to 0.12 µg/mL (≈ 0.0976 to 0.39 µM), an MIC (Penicillium piscarium) of 0.12 to 0.6 µg/mL (≈ 0.39 to 1.95 µM) and an MIC (Aureobasidium pullulans) of 0.03 to 0.12 µg/mL (≈ 0.0976 to 0.39 µM).
`Nc1ncccc1OCC#CI` [drawing 6] was tested, and the MIC (Staphylococcus aureus) was 15 to 76 µg/mL (≈ 54.7 to 277 µM), the MIC (Escherichia coli) was 15 to 76 µg/mL (≈ 54.7 to 277 µM) and the MIC (Pseudomonas aeruginosa) was 76 to 384 µg/mL (≈ 277 to 1400 µM). It also gave an MIC (Proteus vulgaris) of 3 to 15 µg/mL (≈ 10.9 to 54.7 µM), an MIC (Bacillus subtilis) of 15 to 76 µg/mL (≈ 54.7 to 277 µM) and an MIC (Aspergillus niger) of 0.12 to 0.6 µg/mL (≈ 0.438 to 2.19 µM). For the same compound, the MIC (Aspergillus oryzae) was 0.12 to 0.6 µg/mL (≈ 0.438 to 2.19 µM), the MIC (Penicillium piscarium) was 0.6 to 3 µg/mL (≈ 2.19 to 10.9 µM) and the MIC (Aureobasidium pullulans) was 0.6 to 3 µg/mL (≈ 2.19 to 10.9 µM).
`IC#CCSc1cccnc1` [drawing 7] showed an MIC (Staphylococcus aureus) greater than 1920 µg/mL, an MIC (Escherichia coli) greater than 1920 µg/mL and an MIC (Pseudomonas aeruginosa) greater than 1920 µg/mL. It also gave an MIC (Proteus vulgaris) greater than 1920 µg/mL, an MIC (Bacillus subtilis) greater than 1920 µg/mL and an MIC (Aspergillus niger) of 15 to 76 µg/mL (≈ 54.5 to 276 µM). It also gave an MIC (Aspergillus oryzae) of less than 0.03 µg/mL, an MIC (Penicillium piscarium) of 0.12 to 0.6 µg/mL (≈ 0.436 to 2.18 µM) and an MIC (Aureobasidium pullulans) of 0.12 to 0.6 µg/mL (≈ 0.436 to 2.18 µM).
Compound `IC#CCOCc1cccnc1` [drawing 8] has an MIC (Staphylococcus aureus) of 76 to 384 µg/mL (≈ 278 to 1410 µM), an MIC (Escherichia coli) of 76 to 384 µg/mL (≈ 278 to 1410 µM) and an MIC (Pseudomonas aeruginosa) greater than 1920 µg/mL. The MIC (Proteus vulgaris) was 15 to 76 µg/mL (≈ 54.9 to 278 µM), the MIC (Bacillus subtilis) was 76 to 384 µg/mL (≈ 278 to 1410 µM) and the MIC (Aspergillus niger) was 0.03 to 0.12 µg/mL (≈ 0.11 to 0.439 µM). It also gave an MIC (Aspergillus oryzae) of 0.12 to 0.6 µg/mL (≈ 0.439 to 2.2 µM), an MIC (Penicillium piscarium) of 0.12 to 0.6 µg/mL (≈ 0.439 to 2.2 µM) and an MIC (Aureobasidium pullulans) of 0.6 to 3 µg/mL (≈ 2.2 to 11 µM).
Work on `IC#CCOc1ccncc1` [drawing 9] yielded an MIC (Staphylococcus aureus) of 384 to 1920 µg/mL (≈ 1480 to 7410 µM), an MIC (Escherichia coli) of 384 to 1920 µg/mL (≈ 1480 to 7410 µM) and an MIC (Pseudomonas aeruginosa) greater than 1920 µg/mL. The MIC (Proteus vulgaris) was 76 to 384 µg/mL (≈ 293 to 1480 µM), the MIC (Bacillus subtilis) was 3 to 15 µg/mL (≈ 11.6 to 57.9 µM) and the MIC (Aspergillus niger) was less than 0.03 µg/mL. The MIC (Aspergillus oryzae) was 0.03 to 0.12 µg/mL (≈ 0.116 to 0.463 µM), the MIC (Penicillium piscarium) was 0.03 to 0.12 µg/mL (≈ 0.116 to 0.463 µM) and the MIC (Aureobasidium pullulans) was 0.12 to 0.6 µg/mL (≈ 0.463 to 2.32 µM).
Work on `IC#CCSc1ccncc1` [drawing 10] yielded an MIC (Staphylococcus aureus) of 384 to 1920 µg/mL (≈ 1400 to 6980 µM), an MIC (Escherichia coli) greater than 1920 µg/mL and an MIC (Pseudomonas aeruginosa) greater than 1920 µg/mL. The MIC (Proteus vulgaris) was 384 to 1920 µg/mL (≈ 1400 to 6980 µM), the MIC (Bacillus subtilis) was 76 to 384 µg/mL (≈ 276 to 1400 µM) and the MIC (Aspergillus niger) was less than 0.03 µg/mL. For the same compound, the MIC (Aspergillus oryzae) was 0.12 to 0.6 µg/mL (≈ 0.436 to 2.18 µM), the MIC (Penicillium piscarium) was 0.12 to 0.6 µg/mL (≈ 0.436 to 2.18 µM) and the MIC (Aureobasidium pullulans) was 0.12 to 0.6 µg/mL (≈ 0.436 to 2.18 µM).
With `IC#CCOc1cccnc1` [drawing 11] the “Surface Growth” value [1, 3] was 0, the “Zone of Inhibition” value [1, 3] was 3 (11-15 mm) and the “Surface Growth” value [1, 4] was 0. The “Zone of Inhibition” value [1, 4] was 3 (11-15 mm).
With `Cc1ccc(OCC#CI)cn1` [drawing 12] the “Surface Growth” value [1, 3] was 0, the “Zone of Inhibition” value [1, 3] was 2 (6-10 mm) and the “Surface Growth” value [1, 4] was 0. The “Zone of Inhibition” value [1, 4] was 2 (6-10 mm), the “Surface Growth” value [2, 3] was 0 and the “Zone of Inhibition” value [2, 3] was 1 (1-5 mm). For the same compound, the “Surface Growth” value [2, 4] was 0 and the “Zone of Inhibition” value [2, 4] was 2 (6-10 mm).
`Clc1ncccc1OCC#CI` [drawing 13] was tested, and the “Surface Growth” value [1, 3] was 0, the “Zone of Inhibition” value [1, 3] was 2 (6-10 mm) and the “Surface Growth” value [1, 4] was 0. For the same compound, the “Zone of Inhibition” value [1, 4] was 3 (11-15 mm), the “Surface Growth” value [2, 3] was 0 and the “Zone of Inhibition” value [2, 3] was 1 (1-5 mm). For the same compound, the “Surface Growth” value [2, 4] was 0 and the “Zone of Inhibition” value [2, 4] was 2 (6-10 mm).
